Our source for the Drug metabolism values is ChEMBL document CHEMBL3525934 (Drug Metab Dispos, 2013).

What all share (format): ADME
Common to all, as to details: 0.5 h

For data set [1], the target named is T1, Cytochrome P450 1A2 (Homo sapiens, UniProt P05177).
T1 sequence (P05177 whole entry): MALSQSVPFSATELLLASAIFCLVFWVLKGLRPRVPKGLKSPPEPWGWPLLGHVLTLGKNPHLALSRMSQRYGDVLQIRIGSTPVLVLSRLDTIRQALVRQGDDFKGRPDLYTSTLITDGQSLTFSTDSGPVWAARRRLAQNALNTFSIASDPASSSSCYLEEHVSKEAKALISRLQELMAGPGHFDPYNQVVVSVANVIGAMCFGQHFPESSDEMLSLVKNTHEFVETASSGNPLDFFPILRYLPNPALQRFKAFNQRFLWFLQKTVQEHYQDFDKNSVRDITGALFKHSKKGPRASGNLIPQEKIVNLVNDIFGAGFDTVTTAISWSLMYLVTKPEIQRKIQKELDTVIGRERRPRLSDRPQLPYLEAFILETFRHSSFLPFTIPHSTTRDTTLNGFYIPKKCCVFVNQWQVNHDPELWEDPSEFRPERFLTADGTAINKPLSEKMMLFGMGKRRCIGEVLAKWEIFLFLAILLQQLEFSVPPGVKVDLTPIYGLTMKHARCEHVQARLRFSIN
Nature of the data set: Drug metabolism in supersomes expressing human recombinant CYP1A2 assessed as enzyme-mediated cyanide adduct formation at 100 uM after 30 mins measured per nmol of P450 by HPLC analysis in presence of KCN.

The target of data set [2] is T1, Cytochrome P450 1A2. Nature of the data set: Drug metabolism in supersomes expressing human recombinant CYP1A2 assessed as enzyme-mediated N-desmethylclozapine metabolite formation at 10 uM after 30 mins measured per nmol of P450 by HPLC analysis.
The next data set addresses T2, Cytochrome P450 2C8 (Homo sapiens, UniProt P10632).
T2 sequence (P10632 whole entry): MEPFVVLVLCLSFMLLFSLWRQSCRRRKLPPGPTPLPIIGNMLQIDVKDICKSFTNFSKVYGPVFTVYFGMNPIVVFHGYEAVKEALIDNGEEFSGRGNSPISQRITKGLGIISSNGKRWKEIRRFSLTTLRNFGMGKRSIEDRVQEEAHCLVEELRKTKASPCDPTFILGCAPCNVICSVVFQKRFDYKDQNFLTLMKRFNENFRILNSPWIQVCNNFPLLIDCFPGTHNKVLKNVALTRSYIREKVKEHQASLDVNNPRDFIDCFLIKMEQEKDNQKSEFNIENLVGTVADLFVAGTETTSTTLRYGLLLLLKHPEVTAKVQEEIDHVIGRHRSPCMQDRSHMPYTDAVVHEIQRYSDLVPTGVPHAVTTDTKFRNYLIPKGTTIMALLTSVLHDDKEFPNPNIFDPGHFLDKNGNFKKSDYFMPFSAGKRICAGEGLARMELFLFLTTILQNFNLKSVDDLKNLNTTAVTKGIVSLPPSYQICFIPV
Nature of the data set: Drug metabolism in supersomes expressing human recombinant CYP2C8 assessed as enzyme-mediated N-desmethylclozapine metabolite formation at 10 uM after 30 mins measured per nmol of P450 by HPLC analysis.

For data set [3], the target named is T3, Cytochrome P450 2C18 (Homo sapiens, UniProt P33260).
T3 sequence (P33260 whole entry): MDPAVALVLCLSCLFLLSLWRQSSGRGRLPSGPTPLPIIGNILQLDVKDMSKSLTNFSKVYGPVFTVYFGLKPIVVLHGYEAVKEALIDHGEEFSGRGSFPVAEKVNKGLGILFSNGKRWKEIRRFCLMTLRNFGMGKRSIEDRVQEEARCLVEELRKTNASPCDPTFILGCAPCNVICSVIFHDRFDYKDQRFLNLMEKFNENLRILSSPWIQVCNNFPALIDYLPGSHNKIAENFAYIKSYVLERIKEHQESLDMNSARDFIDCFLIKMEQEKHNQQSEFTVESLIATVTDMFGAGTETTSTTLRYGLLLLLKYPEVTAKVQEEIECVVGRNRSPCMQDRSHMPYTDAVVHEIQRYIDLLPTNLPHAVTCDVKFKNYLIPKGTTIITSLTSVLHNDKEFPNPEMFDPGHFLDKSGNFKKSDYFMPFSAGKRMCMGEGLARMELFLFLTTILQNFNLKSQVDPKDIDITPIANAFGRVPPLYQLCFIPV
Nature of the data set: Drug metabolism in supersomes expressing human recombinant CYP2C18 assessed as enzyme-mediated N-desmethylclozapine metabolite formation at 10 uM after 30 mins measured per nmol of P450 by HPLC analysis.

A further data set deals with Cytochrome P450 2C9 (Homo sapiens, UniProt P11712). Nature of the data set: Drug metabolism in supersomes expressing human recombinant CYP2C9 assessed as enzyme-mediated clozapine-N-oxide metabolite formation at 10 uM after 30 mins measured per nmol of P450 by HPLC analysis.
Sequence of Cytochrome P450 2C9 (P11712 whole entry): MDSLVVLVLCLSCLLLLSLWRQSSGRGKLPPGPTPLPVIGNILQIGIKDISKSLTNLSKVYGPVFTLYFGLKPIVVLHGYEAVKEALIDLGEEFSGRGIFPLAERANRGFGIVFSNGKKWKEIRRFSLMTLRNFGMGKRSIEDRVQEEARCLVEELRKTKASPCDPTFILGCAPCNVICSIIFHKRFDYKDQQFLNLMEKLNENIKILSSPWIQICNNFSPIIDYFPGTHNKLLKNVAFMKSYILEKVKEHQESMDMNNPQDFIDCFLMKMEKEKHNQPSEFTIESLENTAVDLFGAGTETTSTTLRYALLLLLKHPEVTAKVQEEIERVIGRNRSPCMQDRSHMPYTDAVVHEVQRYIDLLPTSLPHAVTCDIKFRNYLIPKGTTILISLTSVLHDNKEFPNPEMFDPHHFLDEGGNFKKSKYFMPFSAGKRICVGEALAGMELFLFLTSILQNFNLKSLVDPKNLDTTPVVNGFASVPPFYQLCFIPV
In data set [4] the target is T1, Cytochrome P450 1A2. Nature of the data set: Drug metabolism in supersomes expressing human recombinant CYP1A2 assessed as enzyme-mediated clozapine-N-oxide metabolite formation at 100 uM after 30 mins measured per nmol of P450 by HPLC analysis.
The target in data set [5] is T3, Cytochrome P450 2C18. Nature of the data set: Drug metabolism in supersomes expressing human recombinant CYP2C18 assessed as enzyme-mediated clozapine-N-oxide metabolite formation at 100 uM after 30 mins measured per nmol of P450 by HPLC analysis.
Data set [6] has as its target T1, Cytochrome P450 1A2. Nature of the data set: Drug metabolism in supersomes expressing human recombinant CYP1A2 assessed as enzyme-mediated total GSH conjugate formation at 10 uM after 30 mins measured per nmol of P450 by HPLC analysis in presence of GSH and hGST P1-1.
Data set [7] deals with T4, Cytochrome P450 2D6 (Homo sapiens, UniProt P10635). Nature of the data set: Drug metabolism in supersomes expressing human recombinant CYP2D6 assessed as enzyme-mediated total GSH conjugate formation at 10 uM after 30 mins measured per nmol of P450 by HPLC analysis in presence of GSH and hGST P1-1.
T4 sequence (P10635 whole entry): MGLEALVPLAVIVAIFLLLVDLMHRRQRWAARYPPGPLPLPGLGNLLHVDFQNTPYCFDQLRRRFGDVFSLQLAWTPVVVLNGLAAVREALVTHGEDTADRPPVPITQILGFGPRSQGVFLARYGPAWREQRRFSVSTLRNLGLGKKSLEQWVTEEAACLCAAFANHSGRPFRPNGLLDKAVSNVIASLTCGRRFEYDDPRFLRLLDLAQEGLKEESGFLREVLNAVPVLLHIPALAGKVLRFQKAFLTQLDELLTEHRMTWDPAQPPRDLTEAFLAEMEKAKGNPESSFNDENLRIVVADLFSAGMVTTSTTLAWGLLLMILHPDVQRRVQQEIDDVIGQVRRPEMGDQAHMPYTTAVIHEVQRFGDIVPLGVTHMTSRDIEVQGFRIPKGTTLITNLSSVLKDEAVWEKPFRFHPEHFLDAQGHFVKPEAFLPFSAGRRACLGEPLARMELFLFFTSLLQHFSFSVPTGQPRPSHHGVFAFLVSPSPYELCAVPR
Data set [8] deals with T3, Cytochrome P450 2C18. Nature of the data set: Drug metabolism in supersomes expressing human recombinant CYP2C18 assessed as enzyme-mediated N-desmethylclozapine metabolite formation at 100 uM after 30 mins measured per nmol of P450 by HPLC analysis.
A further data set concerns the target Cytochrome P450 2C19 (Homo sapiens, UniProt P33261). Nature of the data set: Drug metabolism in supersomes expressing human recombinant CYP2C19 assessed as enzyme-mediated N-desmethylclozapine metabolite formation at 100 uM after 30 mins measured per nmol of P450 by HPLC analysis.
For data set [9], the target named is T4, Cytochrome P450 2D6. Nature of the data set: Drug metabolism in supersomes expressing human recombinant CYP2D6 assessed as enzyme-mediated N-desmethylclozapine metabolite formation at 100 uM after 30 mins measured per nmol of P450 by HPLC analysis.

Molecules are shown by their SMILES.

Sequence of Cytochrome P450 2C19 (P33261 whole entry): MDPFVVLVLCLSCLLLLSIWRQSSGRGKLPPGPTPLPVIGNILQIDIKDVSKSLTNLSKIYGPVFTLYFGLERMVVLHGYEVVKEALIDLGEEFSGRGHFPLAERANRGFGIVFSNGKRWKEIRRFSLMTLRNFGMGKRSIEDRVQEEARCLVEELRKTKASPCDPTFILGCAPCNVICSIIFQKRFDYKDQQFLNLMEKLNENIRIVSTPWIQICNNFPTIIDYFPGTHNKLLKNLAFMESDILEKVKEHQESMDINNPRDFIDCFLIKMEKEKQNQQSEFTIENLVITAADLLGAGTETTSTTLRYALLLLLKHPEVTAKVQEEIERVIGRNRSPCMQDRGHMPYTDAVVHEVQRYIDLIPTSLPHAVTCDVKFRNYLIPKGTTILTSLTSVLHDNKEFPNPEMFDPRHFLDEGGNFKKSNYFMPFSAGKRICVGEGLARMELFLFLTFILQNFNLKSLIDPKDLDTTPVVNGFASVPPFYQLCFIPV

For the compound `CN1CCN(C2=Nc3cc(Cl)ccc3Nc3ccccc32)CC1` [CLOZAPINE], the Drug metabolism worked out at 0.2 nmol/min at Cytochrome P450 1A2 [1]; 1.12 nmol/min at Cytochrome P450 1A2 [2]; 0.92 nmol/min on Cytochrome P450 2C8; 4.08 nmol/min/nmol P450 on Cytochrome P450 2C18 [3]; 0.065 nmol/min on Cytochrome P450 2C9; 3.7 nmol/min at Cytochrome P450 1A2 [4]. The Drug metabolism at Cytochrome P450 2C18 [5] is 0.065 nmol/min; at Cytochrome P450 1A2 [6] it was 0.06 nmol/min; on Cytochrome P450 2D6 [7] it was 0.47 nmol/min; at Cytochrome P450 2C18 [8] it was 5.71 nmol/min/nmol P450; on Cytochrome P450 2C19 it was 5.11 nmol/min; on Cytochrome P450 2D6 [9] it was 23.7 nmol/min.
